Measurements published in patent US8729097B2, “Quinoline compounds as inhibitors of angiogenesis, human methionine aminopeptidase, and SIRT1, and methods of treating disorders” (The Johns Hopkins University, priority 2008, dated 2014).
pIC50: −log10 of the molar value.

Assays:
[1] = test system: HCC1954 human breast cancer cells; assay: Breast cancer xenografts; assay type: in vivo, mice
Protocol: Approximately two million of HCC1954 cells were injected bilaterally and subcutaneously into female athymic nude mice (NCR nu/nu, n=5/group). After tumors became palpable, control mice were treated with vehicle (peanut oil with 5% DMSO). […] The tumor volume was measured using a vernier caliper and calculated according to the modified ellipsoid formula: Tumor volume (mm^3)=(short axis)^2×(long axis)×π/6
After 30 days of treatment, the mice were sacrificed and the tumor tissues were extracted for immunohistochemical analysis and Western blots.

hMetAP2 = biological target: T1, hMetAP2 (Homo sapiens, UniProt P50579); assay: MetAP enzymatic assay, hMetAP2; assay type: biochemical; conditions: Co^2+ versus Mn^2+
T1 construct: made in house
T1 sequence (P50579 whole entry): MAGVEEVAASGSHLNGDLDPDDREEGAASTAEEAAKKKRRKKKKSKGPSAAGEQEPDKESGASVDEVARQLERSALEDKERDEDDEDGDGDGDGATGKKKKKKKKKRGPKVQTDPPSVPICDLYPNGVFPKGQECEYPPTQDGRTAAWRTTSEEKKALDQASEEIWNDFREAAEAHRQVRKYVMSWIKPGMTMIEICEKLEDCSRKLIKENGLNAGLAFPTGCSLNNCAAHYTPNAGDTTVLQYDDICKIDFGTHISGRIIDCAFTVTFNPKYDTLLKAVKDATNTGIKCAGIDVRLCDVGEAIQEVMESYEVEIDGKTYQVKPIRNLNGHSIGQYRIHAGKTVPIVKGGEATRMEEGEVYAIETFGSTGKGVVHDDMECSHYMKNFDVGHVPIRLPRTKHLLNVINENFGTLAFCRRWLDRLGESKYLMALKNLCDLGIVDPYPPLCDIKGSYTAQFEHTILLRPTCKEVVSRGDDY

HUVEC = assay: Endothelial cell tube formation assay; assay type: cell-based, human; conditions: Matrigel; EX527 1 μM, TNP470 10 nM
Protocol: HUVEC were seeded on a 96-well plate (2×10^4 cells/well) coated with Matrigel. The cells were then incubated for 16˜18 h in a humidified 5% CO2 incubator at 37° C. The cells were washed carefully with PBS once and Calcein-AM solution in PBS was then added to a final concentration of 2 μM. After incubation for an additional 30 min, the cells were washed carefully with PBS and observed under a fluorescence microscope (485 nm excitation/520 nm emission). The tube formed was quantified using AngioQuant v1.33 (The MathWorks).

[2] = test system: Saccharomyces cerevisiae strain BY4743; assay: Yeast growth assay (wild type, map1Δ, map2Δ); assay type: cell-based; conditions: drug on paper disc
Text: Saccharomyces cerevisiae strain BY4743 (MATa/α his3Δ1/his3Δ1 leu2Δ0/leu2Δ0 lys2Δ0/LYS2) and its isogenic haploid derivatives for MetAP1 (map1Δ) and MetAP2 (map2Δ) deletion mutants were used for yeast growth assays. Drugs dissolved in DMSO were spotted onto sterile filter disks and dried before experiments. Exponentially growing yeast strains were mixed with top agar and plated on YPD (1% yeast extract/2% peptone/2% glucose) plates. The filter disks were then placed on the YPD plates containing yeasts and the incubation was continued for 48 h at 30° C.

HFF = HFF proliferation (selectivity); assay type: cell-based; conditions: Homo sapiens, HFF; Table 2
[3] = test system: angiogenesis in Matrigel plugs; assay: Matrigel plug assay in vivo; conditions: 60 mg/kg, i.p., nude mice, versus vehicle
Protocol: Female athymic nude mice (NCR nu/nu, 4-6 weeks old) were purchased from NCI-Frederick, Md. and treated in accordance with Johns Hopkins Animal Care and Use Committee procedures. […] Mice were pre-treated for 3 days before 0.5 mL of Matrigel (BD Biosciences) containing 150 ng/ml VEGF and 200 ng/ml bFGF was implanted subcutaneously. Drug treatment was continued daily for an additional 10 days. Mice were sacrificed, and Matrigel plugs were harvested, fixed in neutral buffered formalin, and processed for histology using MAS-trichrome staining. A cross-section of the entire Matrigel plug was photographed at ×100. And erythrocyte-filled blood vessels were counted per field in a blinded manner.

Compound: O=[N+]([O-])c1ccc(O)c2ncccc12 [Entry 1c, nitroxoline]
- level of p53 protein in tumor tissues ([1]; Western blot of tumor tissues): increased
- p53 acetylation in tumor tissues ([1]; Western blot of tumor tissues): significantly induced p53 acetylation
- tumor-associated angiogenesis ([1]; anti-CD31 immunohistochemical staining): strongly inhibited
- inhibition of growth of HCC1954 xenografts ([1]; day 30, 60 mg/kg i.p., nude mice): 55%
- potency on MetAP-2 with Co^2+ lower than with Mn^2+ (hMetAP2): 25 fold
- HUVEC tube formation (HUVEC): inhibited
- growth of MetAP-1 deletion mutant (map1Δ) ([2]; map1Δ): significantly inhibited
- growth of MetAP-2 deletion mutant ([2]; map2Δ): did not affect the growth
- growth of wild-type yeast ([2]; wild type): did not inhibit the yeast growth
- pIC50 (HFF): 4.87
- density of new blood vessels in Matrigel plugs [3]: dramatic reduction in the density of new blood vessels
